Experimental data: PubChem BioAssay AID1996
Converted amounts (≈) assume the structure as drawn.

Settings: buffer; pH 7.4; 200.0 µM

SMILES	solubility kinetic
O=C(NC1CCCC1)c1c(O)nc2sccn2c1=O	> 41.9 µg/mL
CC(=O)Nc1ccc(NC(=O)Nc2ccccc2C)cc1	1.8 µg/mL (≈ 6.35 µM)
COc1ccc(Nc2ccc([N+](=O)[O-])cc2[N+](=O)[O-])cc1	1.5 µg/mL (≈ 5.19 µM)
CC(C)CCNC(=O)C(=O)NCc1ccccc1	2.6 µg/mL (≈ 10.5 µM)
COCCNC(=O)Cn1nc(C)c([N+](=O)[O-])c1C	> 38.4 µg/mL
CSc1ncccc1C(=O)OCC(=O)NCCc1ccccc1	27.9 µg/mL (≈ 84.4 µM)
O=C(C(=O)N1CCN(c2ccc(F)cc2)CC1)c1c[nH]c2ccccc12	6.9 µg/mL (≈ 19.6 µM)
c1ccc(-c2ncc(CN3CCN(c4ccccn4)CC3)[nH]2)cc1	45.2 µg/mL (≈ 142 µM)
CC(=O)OC(C)C[N+](C)(C)C.[Cl-] (stereo not given)	> 29.4 µg/mL
COc1ccc(CNC(=O)COC(=O)Cc2ccc(Br)cc2)cc1	5.8 µg/mL (≈ 14.8 µM)
Nc1cc(=O)[nH]c(SCC(=O)Nc2ccc3c(c2)CCC3)n1	7.8 µg/mL (≈ 24.7 µM)
CC(=O)c1csc(COc2cc(Cl)cc(Cl)c2)n1	< 0.6 µg/mL
CC(=O)N1CCN(C(=O)COC(=O)c2ccc(S(C)(=O)=O)cc2)CC1	> 55.3 µg/mL
COC(=O)Cc1ccc(NC(=S)N2CCN(c3ccccn3)CC2)cc1	5 µg/mL (≈ 13.5 µM)
O=C(/C=C/c1cc(Br)ccc1F)Nc1cccnc1	2 µg/mL (≈ 6.23 µM)
CCOC(=O)C1=CCN(Cc2ccccc2)CC1.Cl	37.8 µg/mL
O=C(CS(=O)(=O)c1ccccc1)Nc1cccnc1	> 41.4 µg/mL
CCCC1Cc2[nH]c(=O)c(C#N)cc2CO1 (stereo not given)	> 32.7 µg/mL
CCN(c1ccccc1)S(=O)(=O)c1ccc(C(=O)N(C)Cc2cccs2)cc1	20.9 µg/mL (≈ 50.4 µM)
Cc1nc2ccccc2c(=O)n1-c1ccc([N+](=O)[O-])cc1	> 42.2 µg/mL

SMILES	solubility kinetic
N#CCc1cc2ccc3cccc4ccc(c1)c2c34	< 0.5 µg/mL
CCCCCc1c(O)nc(SCCN(C)C)[nH]c1=O.Cl	> 48.3 µg/mL
CC(C)CCN1CCN(Cc2ccoc2)CC1CCO (stereo not given)	29.6 µg/mL (≈ 106 µM)
O=C(c1cc(Cl)ccc1Cl)N1CCc2ccccc21	12.1 µg/mL (≈ 41.4 µM)
CC(=O)N1c2ccccc2C(CBr)=CC1(C)C	31.8 µg/mL (≈ 108 µM)
CCc1ccc(C(=O)NC(=S)NCc2cccnc2)cc1	39.9 µg/mL (≈ 133 µM)
N#C/C(=C\N1CCOCC1)S(=O)(=O)c1ccc(Cl)cc1	45 µg/mL (≈ 144 µM)
COc1ccc(C(=O)O)cc1S(=O)(=O)N1CCN(Cc2ccc3c(c2)OCO3)CC1	> 65.2 µg/mL
CC[n+]1ccc(/C=C/c2c[nH]c3ccccc23)cc1.[Cl-]	32.8 µg/mL
COc1ccc(Cl)cc1NC(=O)CCN1CCOCC1	> 44.8 µg/mL
CC1=C/C(=N\OS(=O)(=O)c2ccccc2)C(C)=CC1=O	6.4 µg/mL (≈ 22 µM)
O=c1[nH]c2ccccc2nc1-c1c[nH]c2ccccc12	0.2 µg/mL (≈ 0.765 µM)
FC(F)(F)c1cnc(COc2cc(Cl)cc(Cl)c2)c(Cl)c1	< 0.8 µg/mL
Cc1c(C)n(CCCN(C)C)c2ncnc(Nc3ccc(F)cc3)c12	48.7 µg/mL (≈ 143 µM)
Br.CN(/N=C/c1ccncc1)C1=NCCN1	> 42.6 µg/mL
Cc1cc(C)c(OCCOCCN2CCCC2)c(C)c1	30.2 µg/mL (≈ 109 µM)
Cc1ccc(C(=O)N2CCN(C(=O)c3ccc(C)cc3)C2)cc1	> 46.3 µg/mL
COc1ccc(NS(=O)(=O)c2ccc(C(=O)N3CCCCCC3)cc2)cc1	> 58.3 µg/mL
ONC(=Nc1cccc(C(F)(F)F)c1)c1cccnc1	> 42.2 µg/mL
CCOc1cccc(C2CC(=O)Nc3cc(OC)c(OC)cc32)c1 (stereo not given)	12.5 µg/mL (≈ 38.2 µM)

SMILES	solubility kinetic
Cc1cc(NCc2ccc(F)cc2)nc2cc(Cl)ccc12	0.8 µg/mL (≈ 2.66 µM)
O=C(NCCNS(=O)(=O)c1ccccc1)c1ccc([N+](=O)[O-])cc1	51.1 µg/mL (≈ 146 µM)
CC1CC(C)CN(C(=O)c2cccc(NC(=O)CC3SC(N4CCCCC4)=NC3=O)c2)C1 (stereo not given)	67.1 µg/mL (≈ 147 µM)
O=C1CN(S(=O)(=O)c2ccc(F)cc2)CCN1	> 38.7 µg/mL
O=S(=O)(c1cccs1)N1CCN(c2ccc(F)cc2)CC1	9.6 µg/mL (≈ 29.4 µM)
Nc1ncc([N+](=O)[O-])c(N2CCCCCC2)n1	> 35.6 µg/mL
COc1ccccc1CNC(=O)N1CCN(c2ccccc2)CC1	> 48.8 µg/mL
Cc1ccc(F)cc1NC(=O)N1CCCN(C(=O)OC(C)(C)C)CC1	46.9 µg/mL (≈ 133 µM)
COc1ccc(CC(=O)Nc2ccc3c(c2)C(=O)N(CCC(=O)O)C3=O)cc1	53.2 µg/mL (≈ 139 µM)
CN1CCN(C(=S)C(=O)NCc2ccccc2)CC1	> 41.6 µg/mL
O=C1Nc2ccccc2C1=Nc1cccc(Cl)c1	28.2 µg/mL (≈ 110 µM)
O=C(COC(=O)CN1C(=O)NC2(CCCC2)C1=O)NCc1ccc(Cl)cc1Cl	> 64.2 µg/mL
O=c1[nH]c2cccnc2n1-c1ccc([N+](=O)[O-])cc1	13.3 µg/mL (≈ 51.9 µM)
O=C(O)CC1(CC(=O)NCc2ccc(-c3cccs3)cc2)CCCCC1	43.3 µg/mL (≈ 117 µM)
Cc1ccccc1C(=O)NC(=S)N(CCO)Cc1ccccc1	> 49.3 µg/mL
O=C(CCc1ccccc1)N1CCN(c2ccc(F)cc2)CC1	> 46.9 µg/mL
COc1cc(OC)cc(C(=O)OCC(=O)Nc2cccc(S(=O)(=O)NC3=NCCCCC3)c2)c1	33.3 µg/mL (≈ 68 µM)
O=C(O)C1C2CCC(O2)C1C(=O)Nc1cccc(Br)c1 (stereo not given)	50.7 µg/mL (≈ 149 µM)
COc1cc(CC(=O)OCC(=O)Nc2ccc(N(C)C)cc2)cc(OC)c1OC	> 60.4 µg/mL
O=C(Cc1cccs1)NC(Cc1c[nH]c2ccccc12)C(=O)O (stereo not given)	> 49.3 µg/mL
